From PMC12561453, “Synthesis and Structure–Activity Relationship Study of 2-(amino)quinazolin-4(3H)-one Derivatives as Potential Inhibitors of Methicillin-Resistant Staphylococcus aureus (MRSA)” (Antibiotics, 2025) come the findings set out here.

One test deals with S. aureus ATCC25923. The test is described as follows: Broth microdilution dose-response, S. aureus ATCC25923. It counts as cell-based, Staphylococcus aureus. The conditions noted are these: for antibacterial activity (in words): ATCC25923; for MIC50: Staphylococcus aureus, ATCC25923, methicillin-sensitive strain, OD600 after 18–24 h, read-out: ATCC25923 MIC50. From the text: (§1) The antistaphylococcal activities (MIC50) of the synthesized compounds were examined via a previously described broth microdilution method against two S. aureus strains: ATCC25923, a methicillin-sensitive reference strain, and JE2, a methicillin-resistant strain of the USA300 lineage (Figure 2, Table 1).
(§2) Staphylococcus aureus USA300, a methicillin-resistant strain, was obtained from the Nebraska Transposon Mutant Library. Staphylococcus aureus ATCC25923, a pan-drug-susceptible strain, was purchased from the American Type Culture Collection (ATCC) (Manassas, VA, USA). S. aureus strains were grown in Cation-Adjusted Mueller–Hinton broth (CAMHB) (Difco) at 37 °C. Bacterial strain stocks were stored in vials with 25% glycerol at −80 °C. For each experiment, overnight cultures were prepared by inoculating a frozen bacterial strain stock in 10 mL of CAMHB medium and incubating at 37 °C in a shaking incubator (180 rpm). For the preliminary screen and dose–response experiments, 100 µL of overnight culture was inoculated into 10 mL of fresh CAMHB and incubated for 3 h at 37 °C and 180 rpm.
(§3) Antibiotic susceptibility assay was tested according to modified Clinical and Laboratory Standards Institute (CLSI) laboratory guidelines for broth microdilution assays. S. aureus was cultured in CAMHB, and bacterial cells were prepared with an OD600 of 0.005. DRC plates were prepared by adding 40 µL of bacterial suspension to each well, where 10 µL of each compound had been dispensed for […] of two-fold serial dilutions starting at […]. After incubation of the plates at 37 °C for 18–24 h with 5% CO2, the growth of S. aureus was detected by measuring the OD600nm using an Ensight (Revvity) spectrometer (Revvity, Waltham, MA, USA).
(§4) Figure 2 In vitro antibacterial activities of 2-(amino)quinazolin-4(3H)-one derivatives. S. aureus ATCC25923 (blue) and USA300 JE (orange) strains were incubated with serial dilutions of 2-(amino)quinazolin-4(3H)-one derivatives (0.19–100 µM) for 18–24 h. The dose–responses were observed by measuring OD600nm. The plots were drawn from each group of strains with nonlinear curve fits.
A general note: Dilution methods test growth across graded concentrations, often in twofold steps.

Another test concerns S. aureus USA300 JE2. The test is described as follows: Broth microdilution dose-response, S. aureus USA300 JE2 (MRSA). Type of test: cell-based, Staphylococcus aureus. The conditions noted are these: for antibacterial activity (in words): JE2; for MIC50: Staphylococcus aureus, USA300, USA300 JE2, methicillin-resistant, OD600 after 18–24 h, read-out: USA300 MIC50.
Description: as §1, §2, §3, §4

Molecules are shown by their SMILES. Values after ≈ are worked out from the molar mass of the structure shown. Some results are limits rather than exact numbers.

With `O=c1[nH]c(Nc2ccc(F)cc2F)nc2cc(Cl)ccc12` [6o, 7-Chloro-2-((2,4-difluorophenyl)amino)quinazolin-4(3H)-one], the “antibacterial activity (in words)” value with S. aureus ATCC25923 and with S. aureus USA300 JE2 was “complete loss of activity” throughout. For the same compound, the MIC50 in the test on S. aureus ATCC25923 and in the test with S. aureus USA300 JE2 was > 100 µM each time.
On to `O=c1[nH]c(Nc2ccccc2Cl)nc2cc(Cl)ccc12` [6t, 7-Chloro-2-((2-chlorophenyl)amino)quinazolin-4(3H)-one], for which, in the test on S. aureus ATCC25923, the “antibacterial activity (in words)” value is given as “complete loss of activity” and the MIC50 – broadly, the lowest concentration that inhibits either 50% of growth or 50% of the strains tested, depending on the study – was > 100 µM. Also, in the test with S. aureus USA300 JE2, the “antibacterial activity (in words)” value is on record as “complete loss of activity” and the MIC50 is > 100 µM.
Consider `O=c1[nH]c(NCc2cc(F)cc(F)c2)nc2cc(Cl)ccc12` [6w, 7-Chloro-2-((3,5-difluorobenzyl)amino)quinazolin-4(3H)-one], for which the “antibacterial activity (in words)” value in the test with S. aureus ATCC25923 and in the test on S. aureus USA300 JE2 was “complete loss of activity” in each case. In addition, the MIC50 in the test with S. aureus ATCC25923 and with S. aureus USA300 JE2 was > 100 µM each time.
As for `O=c1[nH]c(Nc2cc(Cl)cc(Cl)c2)nc2cc(N3CCOCC3)ccc12` [6b, 2-((3,5-Dichlorophenyl)amino)-7-morpholinoquinazolin-4(3H)-one], the “antibacterial activity (in words)” value with S. aureus ATCC25923 and in the test with S. aureus USA300 JE2 was “complete abolition of antibacterial activity” throughout. In addition, the MIC50 with S. aureus ATCC25923 and in the test on S. aureus USA300 JE2 was > 100 µM throughout.
On to `COc1cccc(Nc2nc3cc(Cl)ccc3c(=O)[nH]2)c1` [6p, 7-Chloro-2-((3-methoxyphenyl)amino)quinazolin-4(3H)-one], for which the “antibacterial activity (in words)” value in the test with S. aureus ATCC25923 and in the test with S. aureus USA300 JE2 was “Decreased antibacterial activities” throughout. Moreover, the MIC50 in the test on S. aureus ATCC25923 was 35.1 µM (≈ 10.6 µg/mL); with S. aureus USA300 JE2, 24.9 µM (≈ 7.51 µg/mL).
For `COc1cc2nc(Nc3cc(Cl)cc(Cl)c3)[nH]c(=O)c2cc1OC` [6c, 2-((3,5-Dichlorophenyl)amino)-6,7-dimethoxyquinazolin-4(3H)-one], the “antibacterial activity (in words)” value with S. aureus ATCC25923 and in the test with S. aureus USA300 JE2 was “complete abolition of antibacterial activity” throughout. The MIC50 in the test on S. aureus ATCC25923 and with S. aureus USA300 JE2 was > 100 µM throughout.
With `O=c1[nH]c(Nc2cc(Cl)cc(Cl)c2)nc2c(Cl)ccc(Cl)c12` [compound 1, 5,8-Dichloro-2-((3,5-dichlorophenyl)amino)quinazolin-4(3H)-one], the MIC50 in the test on S. aureus ATCC25923 stood at 3.9 µM (≈ 1.46 µg/mL); with S. aureus USA300 JE2, 12.9 µM (≈ 4.84 µg/mL).
On to `O=c1[nH]c(Nc2ccccc2)nc2cc(Cl)ccc12` [6m, 7-Chloro-2-(phenylamino)quinazolin-4(3H)-one], for which the “antibacterial activity (in words)” value in the test with S. aureus ATCC25923 and with S. aureus USA300 JE2 was “complete loss of activity” in each case. Further, the MIC50 with S. aureus ATCC25923 and in the test on S. aureus USA300 JE2 was > 100 µM in each case.
Turning to `COc1ccc2c(=O)[nH]c(Nc3cc(Cl)cc(Cl)c3)nc2c1` [6d, 2-((3,5-Dichlorophenyl)amino)-7-methoxyquinazolin-4(3H)-one], in the test with S. aureus ATCC25923, the “antibacterial activity (in words)” value is “complete abolition of antibacterial activity” and the MIC50 was > 100 µM. Besides, in the test with S. aureus USA300 JE2, the “antibacterial activity (in words)” value is recorded as “complete abolition of antibacterial activity” and the MIC50 was > 100 µM.
Take `O=c1[nH]c(Nc2cc(Cl)cc(Cl)c2)nc2c(Cl)c(Cl)ccc12` [6a, 7,8-Dichloro-2-((3,5-dichlorophenyl)amino)quinazolin-4(3H)-one]: the MIC50 in the test with S. aureus ATCC25923 came to 10.8 µM (≈ 4.05 µg/mL); with S. aureus USA300 JE2, 6.9 µM (≈ 2.59 µg/mL).
With `O=c1[nH]c(NCC2CCCCC2)nc2cc(Cl)ccc12` [6s, 7-Chloro-2-((cyclohexylmethyl)amino)quinazolin-4(3H)-one], in the test with S. aureus ATCC25923, the “antibacterial activity (in words)” value is recorded as “Decreased antibacterial activities” and the MIC50 was 35.5 µM (≈ 10.4 µg/mL). Besides, in the test with S. aureus USA300 JE2, the “antibacterial activity (in words)” value is recorded as “Decreased antibacterial activities” and the MIC50 came out at 18.1 µM (≈ 5.28 µg/mL).
